As usually defined, the solubility is the dissolved amount per volume that the medium holds.

The values below come from patent US9752049B2, “Optically transparent, superhydrophobic, biocompatible thin film coatings and methods for producing same” (UT-BATTELLE, LLC, priority 2014, dated 2017).

This data set can be described thus: physchem. The settings on record: organic solvent or mixture, Solubility Limit. An excerpt: The first step was to gather solubility data on the fatty acids in readily available solvents. […] The available solvents included ethanol, isopropanol, hexane, and acetone.
The next step was to use spin-coating to apply the optimum mixture of each fatty acid/alcohol solution to microscope slides. This process began with cleaning the slide, then affixing it to the spin-coater by turning on the internal vacuum. Once the slide was in place, the chosen solution was applied by a syringe using a 0.02 micron filter. This filter was to ensure that only the pure solution and no contaminants or occasional precipitates made it onto the slide. The coated slide was then spun at 1000 rpm for thirty seconds and placed on a hot plate at 152 degrees Fahrenheit to vaporize any remaining solvent. The slide was allowed to cool for two minutes. Once cool, the slide was subjected to a simple yet effective test of hydrophobicity. This test consisted of merely placing a water droplet on the slide using a Pasteur pipet and eyeballing it to see if it even merited further characterization. This process was repeated for many slides, each time varying the type of fatty acid and the solvent as well as the concentration of the fatty acid in the solvent. […] Below is additional solubility data for Behenic Acid: […]

In brackets after ≈: the same amount, converted by molar mass.

On to `CCCCCCCCCCCCCC(=O)O` [Myristic Acid], for which the solubility was 300 mM (≈ 68.5 mg/mL).
